# Where two headings read alike, the source gives them in different places.
# Key:
# [1] = tested on: BRIN-BD11 cells; test: Acute insulin release from BRIN-BD11 cells cultured overnight with forskolin, PMA or pertussis toxin; format: cell-based, rat; details: acute test at 5.6 mM glucose; for Stimulatory effect on insulin secretion in cells cultured overnight with PMA: 10 nM PMA overnight (protein kinase C pathway); for Stimulatory effect on insulin secretion in cells cultured overnight with pertussis toxin: 0.1 μg/ml pertussis toxin overnight (G-protein pathway); for Stimulatory effect on insulin secretion in cells cultured overnight with forskolin: 25 μM forskolin overnight (desensitised cyclic AMP-protein kinase A pathway)
# Procedure: FIG. 8 illustrates the dependence of the stimulatory effects of 1653.2 Da purified peptide (peak 1.10) from Agalychnis calcarifer on intracellular pathways mediated by protein kinase A (forskolin), protein kinase C (PMA) or pertussis toxin-sensitive G-proteins. Legend: Acute effects of the 13 amino acid 1653.2 Da purified peptide (peak 1.10) from Agalychnis calcarifer on forskolin and PMA on insulin secretion from BRIN-BD11 cells cultured overnight in the absence (control) and presence of 25 μM forskolin, 10 nM PMA or 0.1 μg/ml pertussis toxin. Acute incubations were performed at 5.6 mM glucose. Values are the mean ±SEM for 8 separate observations. ***P<0.001 compared with 5.6 mM glucose alone under same culture conditions. ^ΔΔΔp<0.001 compared with respective test reagent following control culture.
# FIG. 9 illustrates the dependence of the stimulatory effects of 1641.7 Da, 1662.6 Da, 1619.8 Da and 1650.5 Da purified peptides (peaks 21, 22, 23 and 24) from Bombina variegata on intracellular pathways mediated by protein kinase A (forskolin), protein kinase C (PMA) or pertussis toxin-sensitive G-proteins. Legend: Acute effects of 1641.7, 1662.6, 1619.8 and 1650.5 Da purified peptides (peaks 21, 22, 23 and 24) from Bombina variegata on forskolin and PMA on insulin secretion from BRIN-BD11 cells cultured overnight in the absence (control) and presence of 25 μM forskolin, 10 nM PMA or 0.1 μg/ml pertussis toxin. Acute incubations were performed at 5.6 mM glucose. Values are the mean ±SEM for 8 separate observations. **P<0.001 compared with 5.6 mM glucose alone under same culture conditions. ^ΔP<0.001 compared with respective test reagent following control culture.
# FIG. 10 illustrates the dependence of the stimulatory effects of 4920.4 Da and 4801.2 Da purified peptides (peaks 5.1 and 5.4) from Rana saharica on intracellular pathways mediated by protein kinase A (forskolin), protein kinase C (PMA) or pertussis toxin-sensitive G-proteins. Legend: Acute effects of 4920.4 and 4801.2 Da purified peptides (peaks 5.1 and 5.4) from Rana saharica on forskolin and PMA on insulin secretion from BRIN-BD11 cells cultured overnight in the absence (control) and presence of 25 μM forskolin, 10 nM PMA or […] pertussis toxin. Acute incubations were performed at 5.6 mM glucose. Values are the mean ±SEM for 8 separate observations. ***P<0.001 compared with 5.6 mM glucose alone under same culture conditions. ^ΔΔP<0.001 compared with respective test reagent following control culture.
# (§1) Culture of insulin-secreting cells: Clonal rat insulin-secreting BRIN-BD11 cells were cultured in RPMI-1640 tissue culture medium containing 10% (v/v) fetal calf serum, 1% (v/v) antibiotics (100 U/ml penicillin, 0.1 mg/ml streptomycin) and 11.1 mM glucose. The production and characterisation of BRIN-BD11 cells are described elsewhere. Cells were maintained in sterile tissue culture flasks (Corning, Glass Works, UK) at 37° C. in an atmosphere of 5% CO2 and 95% air using LEEC incubator (Laboratory Technical Engineering, Nottingham, UK). In three experimental series using purified peptides from Agalychnis calcarifer, Bombina variegata and Rana saharica cells were cultured overnight with 25 μM forskolin, 10 nM PMA or 0.1 μg/ml pertussis toxin prior to acute tests.
# Acute insulin release studies: Insulin release from BRIN-BD11 cells was determined using cell monolayers [McClenaghan N H, Barnett C R, Ah-Sing E, Abdel-Wahab Y H, O'Harte F P, Yoon T W, Swanston-Flatt S K and Flatt P R 1996 Characterization of a novel glucose-responsive insulin-secreting cell line, BRIN-BD11, produced by electrofusion. Diabetes 45 1132-1140]. The cells were harvested with the aid of trypsin/EDTA (Gibco), seeded into 24-multiwell plates (Nunc, Rosklide, Denmark) at a density of […] per well, and allowed to attach overnight. […]
# [2] = tested on: BRIN-BD11 cells; format: cell-based, rat; details: for Insulin-releasing action in the presence of verapamil (in words): 50 μM verapamil, calcium channel blocker; for Insulin-releasing action in cells depolarised with KCl (in words): 30 mM KCl; for Insulin secretion (ng/10^6 cells/20 min): 8 observations; for Insulin secretion (ng/10^6 cells/20 min), Control: addition alone without peptide: verapamil 50 μM or KCl 30 mM
# Procedure: as §1
# Acute insulin release studies: Insulin release from BRIN-BD11 cells was determined using cell monolayers [McClenaghan N H, Barnett C R, Ah-Sing E, Abdel-Wahab Y H, O'Harte F P, Yoon T W, Swanston-Flatt S K and Flatt P R 1996 Characterization of a novel glucose-responsive insulin-secreting cell line, BRIN-BD11, produced by electrofusion. Diabetes 45 1132-1140]. The cells were harvested with the aid of trypsin/EDTA (Gibco), seeded into 24-multiwell plates (Nunc, Rosklide, Denmark) at a density of […] per well, and allowed to attach overnight. Prior to acute test, cells were preincubated for 40 min at 37° C. in a 1.0 ml Krebs Ringer bicarbonate buffer (115 mM NaCl, 4.7 mM KCl, 1.28 MM CaCl2, 1.2 MM KH2PO4, 1.2 mM MgSO4, 10 mM NaHCO3, 5 g/l bovine serum albumin, pH 7.4) supplemented with 1.1 mM glucose. Test incubations were performed for 20 min at 37° C. using the same buffer supplemented with 5.6 mM glucose in the absence (control) and presence of various venom fractions, peaks (equivalent to approx. 25 μl dried HPLC fraction) or test agents as indicated in the Figures. Cell viability after 20 min test incubations was assessed by modified neutral red assay [Hunt S M, Chrzanowska C, Barnnett C R, Brand H N and Fawell J K 1987 A comparison of in vitro cytotoxicity assays and their application to water samples. Alternatives to Laboratory Animals 15 20-29]. After incubation, aliquots of buffer were removed and stored at −20° C. for insulin radiomnimmunoassay [Flatt P R. and Bailey C J 1981 Abnormal plasma glucose and insulin responses in heterozygous lean (ob/+) mice. Diabetologia 20 573-577].
# [3] = Table 9, no addition, 5.6 mM glucose, control 1.69 ± 0.17
# [4] = Table 9, peptide plus KCl (30 mM), 5.6 mM glucose
# [5] = Table 9, peptide plus verapamil (50 μM), 5.6 mM glucose
# [6] = peptides from Rana saharica, 5.6 mM glucose, mean ± SEM, 3 observations, no-peptide control 1.87 ± 0.06
# [7] = peptides from Phyllomedusa trinitatis, 5.6 mM glucose, no-peptide control 1.47 ± 0.04
# [8] = peptides from Agalychnis litodryas, 5.6 mM glucose, mean ± SEM, 3 observations, no-peptide control 1.95 ± 0.16
compound,measurement,setting,value
"GKPFYPPPIYPEDM [Peptide 24, peptide from Bombina variegata, 57% ID to tryptophyllin]",Stimulatory effect on insulin secretion in cells cultured overnight with PMA,[1],did not affect
same,Stimulatory effect on insulin secretion in cells cultured overnight with pertussis toxin,[1],did not affect
same,Stimulatory effect on insulin secretion in cells cultured overnight with forskolin,[1],abolished
same,Insulin release (ng/10^6 cells/20 mins),[2],4.30 ± 0.20 ng/10^6 cells/20 mins
same,Insulin-releasing action in the presence of verapamil (in words),[2],not affected
same,Insulin-releasing action in cells depolarised with KCl (in words),[2],clearly evident
same,Insulin secretion (ng/10^6 cells/20 min),[2]; [3],3.31 ± 0.20 ng/10^6 cells/20 min
same,Insulin secretion (ng/10^6 cells/20 min),[2]; [4],15.35 ± 0.41ΔΔΔ*** ng/10^6 cells/20 min
same,Insulin secretion (ng/10^6 cells/20 min),[2]; [5],3.08 ± 0.29 ng/10^6 cells/20 min
"GILSTIKDFAIKAGKGAAKGLLEMASCKLSGQC [Peptide 5.6, 3309.2 Da peptide from Rana saharica, 67% ID to Brevinin-2EB]",Insulin release (ng/10^6 cells/20 mins),[2]; [6],2.86 ± 0.37 ng/10^6 cells/20 mins
"Pyr-DSFGNQWARGHFM-amidated (HELM PEPTIDE1{[Glp].D.S.F.G.N.Q.W.A.R.G.H.F.M.[am]}$$$$V2.0; SMILES CSCC[C@H](NC(=O)[C@H](Cc1ccccc1)NC(=O)[C@H](Cc1c[nH]cn1)NC(=O)CNC(=O)[C@H](CCCNC(=N)N)NC(=O)[C@H](C)NC(=O)[C@H](Cc1c[nH]c2ccccc12)NC(=O)[C@H](CCC(N)=O)NC(=O)[C@H](CC(N)=O)NC(=O)CNC(=O)[C@H](Cc1ccccc1)NC(=O)[C@H](CO)NC(=O)[C@H](CC(=O)O)NC(=O)[C@@H]1CCC(=O)N1)C(N)=O) [Peptide 22, peptide from Bombina variegata, 72% ID to bombesin]",Stimulatory effect on insulin secretion in cells cultured overnight with PMA,[1],did not affect
same,Stimulatory effect on insulin secretion in cells cultured overnight with pertussis toxin,[1],did not affect
same,Stimulatory effect on insulin secretion in cells cultured overnight with forskolin,[1],abolished
same,Insulin release (ng/10^6 cells/20 mins),[2],4.75 ± 0.13 ng/10^6 cells/20 mins
same,Insulin-releasing action in the presence of verapamil (in words),[2],not affected
same,Insulin-releasing action in cells depolarised with KCl (in words),[2],clearly evident
same,Insulin secretion (ng/10^6 cells/20 min),[2]; [3],3.23 ± 0.14 ng/10^6 cells/20 min
same,Insulin secretion (ng/10^6 cells/20 min),[2]; [4],13.69 ± 1.43ΔΔΔ*** ng/10^6 cells/20 min
same,Insulin secretion (ng/10^6 cells/20 min),[2]; [5],3.05 ± 0.09 ng/10^6 cells/20 min
XXPLAPFFQAVFK . . . [Peptide 1.8],Insulin release (ng/10^6 cells/20 mins),[2]; [7],2.48 ± 0.37 ng/10^6 cells/20 mins
"ALSILRGLEKLAKMGIALTNCKATKKC [Peptide 3.8, 2873.5 Da peptide from Rana palustris, 46% ID to Brevinin-1]",Insulin release (ng/10^6 cells/20 mins),"[2]; peptides from Rana palustris, 5.6 mM glucose, no-peptide control 1.467 ± 0.04",2.48 ± 0.44 ng/10^6 cells/20 mins
"AVWKDFLKNIGKAAGKAVLNSVTDMVNE [Peptide 2.9, 3020.0 Da peptide from Agalychnis litodryas, 79% ID to Dermaseptin B IV precursor]",Insulin release (ng/10^6 cells/20 mins),[2]; [8],7.46 ± 0.08 ng/10^6 cells/20 mins
AVITGACERDVQCGGGTCCAVSLI . . . [Peptide 4.23],Insulin release (ng/10^6 cells/20 mins),[2]; [6],4.25 ± 0.17 ng/10^6 cells/20 mins
MLADVFEKIMGD . . . [Peptide 1.7],Insulin release (ng/10^6 cells/20 mins),[2]; [8],4.22 ± 0.48 ng/10^6 cells/20 mins
"FLPIIAGVAAKVFPKIFCAISKKC [Peptide 4.1, peptide from Rana pipiens identical to pipinin-1]",Insulin release (ng/10^6 cells/20 mins),"[2]; peptides from Rana pipiens, 5.6 mM glucose, mean ± SEM, 3 observations, no-peptide control 2.76 ± 0.13",4.15 ± 0.01 ng/10^6 cells/20 mins
"CCCCCCCCCCCCCC(=O)O[C@@H]1[C@@H](C)[C@@]2(O)[C@@H](C=C(CO)C[C@]3(O)C(=O)C(C)=C[C@@H]23)[C@@H]2C(C)(C)[C@]12OC(C)=O [PMA, reference compound]",Stimulatory effect on insulin secretion in cells cultured overnight with PMA,[1],abolition
"GILLDKLKNFAKTAGKGVLQSLLNTASCKLSGQC [Peptide 6.5, peptide from Rana saharica matching Brevinin-2EC]",Insulin release (ng/10^6 cells/20 mins),[2]; [6],5.93 ± 0.47 ng/10^6 cells/20 mins
"KGAAKGLLEVASCKLSKSC [Peptide 4.22, 1892.6 Da peptide from Rana saharica, 68.4% ID to Rugosin A]",Insulin release (ng/10^6 cells/20 mins),[2]; [6],3.47 ± 0.40 ng/10^6 cells/20 mins
"FLPLLAGLAANFLPKIFCKITRKC [Peptide 8.3, peptide from Rana saharica matching Brevinin-1E]",Insulin release (ng/10^6 cells/20 mins),[2]; [6],3.53 ± 0.06 ng/10^6 cells/20 mins
"ALWKDILKNVGKAAGKAVLNTVTDMVNQ [Peptide 2.10, peptide from Phyllomedusa trinitatis, 100% ID to Dermaseptin B IV precursor]",Insulin release (ng/10^6 cells/20 mins),[2]; [7],2.356 ± 0.34 ng/10^6 cells/20 mins
"IYNAICPCKHCNKCKPGLLAN [Peptide 25, 2300.0 Da peptide from Bombina variegata, no database match]",Insulin release (ng/10^6 cells/20 mins),[2],2.39 ± 0.30 ng/10^6 cells/20 mins
"[Cl-].[K+] [KCl, reference compound]","Insulin secretion (ng/10^6 cells/20 min), Control","[2]; Table 8, 5.6 mM glucose",5.32 ± 0.38 ΔΔΔ ng/10^6 cells/20 min
same,"Insulin secretion (ng/10^6 cells/20 min), Control","[2]; Table 9, 5.6 mM glucose",5.33 ± 0.38ΔΔΔ ng/10^6 cells/20 min
same,"Insulin secretion (ng/10^6 cells/20 min), Control","[2]; Table 10, 5.6 mM glucose",5.33 ng/10^6 cells/20 min
